# Source: article PMC11643450, “Pimozide and Adipic Acid: A New Multicomponent Crystalline Entity for Improved Pharmaceutical Behavior” (Molecules, 2024)
# How the values were obtained:
# [1] = Contact angle (wettability) of powder samples with drops of the different fluids; assay type: physicochemical
# Experimental: In total, 120 mg of each sample was placed in a cylindrical ring, and the surface was smoothed with a scraper. The Contact Angle Meter DMe-211Plus (NTG Nuova Tecnogalenica, Cernusco, Italy) was used to record the images of a drop (9 μL) of the different fluids once placed in contact with the surface of the samples at progressive times. The contact angles were measured using the software supplied with the apparatus (three replicates).
# [2] = Solubility at equilibrium, shake flask method with spectrophotometric determination; assay type: physicochemical; conditions: thermodynamic from solid, 21 °C
# Experimental: The samples were sieved through a 230-mesh grid, 63 μm (Endecotts, London, UK).
# An excess sample is placed in the flasks containing the three different fluids and left under stirring. At time intervals, a portion of the solution was taken and filtered on a 0.22 μm filter (Millipore Merck, Darmstadt, Germany). The drug concentration was determined using UV detection (Lambda 25, Perkin-Elmer, Monza, Italy). The test was repeated until equilibrium was reached.
# [3] = In vitro dissolution test, USP apparatus 2 (paddle); assay type: physicochemical
# Experimental: For the dissolution tests, the USP apparatus 2, paddle (Erweka DT-D6, Erweka GmbH, Dusseldorf, Germany) was used at 37.0 ± 0.5 °C and 50 rpm (three replicates). In 900 mL of 0.01 N hydrochloric acid pH = 2, which is the medium requested by the USP monograph (Pimozide Tablets, Official Monograph. In The United States Pharmacopeia (USP43-NF38); United States Pharmacopeia Convention, Inc.: Rockville, MD, USA, 2023; p. 3548), it can simulate a fasted stomach environment and, in other two fluids, simulates the following: pH 4.5 phosphate buffer (a condition that simulates the gastric environment in fed conditions) and deionized water (neutral conditions). The dissolution media were prepared according to the reagent and buffer solutions section of the USP [33]. […] The drug concentration was determined using UV detection (Lambda 25, Perkin-Elmer, Monza, Italy), and the data were analyzed using the software provided (Winlab V6 software, Perkin-Elmer, Monza, Italy).
# [4] = set-up: method as in doi:10.1016/j.molliq.2015.12.054; conditions: cited from earlier work
compound,measurement,setting,value
"O=C(O)CCCCC(=O)O [AAD, adipic acid]",Wettability,[1]; pH 2,poorly wettable
"O=c1[nH]c2ccccc2n1C1CCN(CCCC(c2ccc(F)cc2)c2ccc(F)cc2)CC1 [PMZ, 1-(1-(4,4-bis(p-fluorophenyl)butyl)-4-piperidyl)-2-benzimidazoline]",solubility,"[2]; aqueous buffer, pH 4.5 (phosphate buffer)",6.4 ± 0.2 µg/mL
same,solubility,"[2]; simulated gastric fluid, pH 2.0 (0.01N hydrochloric acid)",175 ± 1.8 µg/mL
same,solubility,[2]; H2O (deionized water),1.4 ± 0.3 µg/mL
same,Contact angle,[1]; deionized water,~120 θ
same,Contact angle,"[1]; pH 2, after about 3 min",4 θ
same,Contact angle,"[1]; pH 2, initial",120 θ
same,Contact angle,[1]; pH 4.5,about 130 θ
same,Passage into solution,"[3]; deionized water (neutral conditions), compared with pH 4.5, 4 mg PMZ",further depressed
same,Fraction of the dose passed into solution in the first hour,"[3]; pH 4.5 phosphate buffer (fed stomach), 4 mg PMZ",just a very tiny fraction of the dose
same,BCS class,[4],class II
[PMZH]2[adipate] [PMZ:AAD 0.66:0.33ev],Contact angle,[1]; deionized water,less than 100 θ
same,Contact angle,[1]; pH 4.5,less than 90 θ
